Active and inactive are the calls of the source.
How the values were obtained:
[1] = Late stage results for the probe development effort to identify inhibitors of Plasmodium falciparum gametocytes: Luminescence-based cell-based high throughput dose response assay to identify inhibitors of viability of late stage Plasmodium falciparum gametocytes.; type: functional
[2] = P. falciparum late gametocyte killing, dose response, luminescence (AID 1117278); type: functional, cell-based;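 also: gametocytes exposed to compound for 24 hours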
[3] = Jurkat T cell cytotoxicity, dose response, cytotoxicity control for P. falciparum gametocyte viability project, luminescence (AID 1117277); type: functional, cell-based;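 also: potency reflects loss of cellular ATP meaning fewer viable cells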
[4] = target: T1, Dual specificity protein phosphatase 6 (Rattus norvegicus, UniProt Q64346); test: MKP-3 phosphatase inhibitors, primary screen, biochemical, rat enzyme, in vitro (AID 425)
T1 sequence (Q64346 whole entry): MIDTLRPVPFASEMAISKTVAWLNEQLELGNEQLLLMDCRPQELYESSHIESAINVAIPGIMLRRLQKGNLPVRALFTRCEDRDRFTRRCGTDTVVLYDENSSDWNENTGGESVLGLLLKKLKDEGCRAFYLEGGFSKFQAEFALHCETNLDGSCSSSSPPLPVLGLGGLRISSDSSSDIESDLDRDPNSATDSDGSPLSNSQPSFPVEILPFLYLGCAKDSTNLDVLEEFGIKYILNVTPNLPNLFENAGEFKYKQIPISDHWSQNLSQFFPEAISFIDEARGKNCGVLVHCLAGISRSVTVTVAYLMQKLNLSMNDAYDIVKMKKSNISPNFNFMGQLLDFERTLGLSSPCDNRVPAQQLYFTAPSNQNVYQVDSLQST

[5] = target: T2, Small ubiquitin-related modifier 1 (Homo sapiens, UniProt P63165); test: inhibitors of SUMO1 peptide binding, dose response, biochemical, fluorescence polarization, uHTS hits (AID 624382); type: functional; settings: read-out: IC50_Mean
[6] = target: T2, Small ubiquitin-related modifier 1; test: inhibitors of SUMO1 partner interactions, dose response, biochemical, FRET (AID 624383); type: functional; settings: read-out: IC50_Mean
Caspase-6 = Caspase-6 (Homo sapiens, UniProt P55212); test: human caspase-6 inhibitors, dose response, biochemical, VEID-R110 fluorescence, cherry-pick (AID 720632)
[7] = target: E3 ubiquitin-protein ligase UHRF1 (Homo sapiens, UniProt Q96T88); test: Counterscreen for inhibitors of 5-meCpG-binding domain protein 2 (MBD2): TRFRET-based biochemical high throughput dose response assay to identify inhibitors of binding of ubiquitin-like with PHD and ring finger domains 1 (UHRF1) to methylated oligonucleotide.
[8] = target: T3, Histone-lysine N-methyltransferase NSD2 (Homo sapiens, UniProt O96028); type: biochemical
T3 sequence (O96028 whole entry): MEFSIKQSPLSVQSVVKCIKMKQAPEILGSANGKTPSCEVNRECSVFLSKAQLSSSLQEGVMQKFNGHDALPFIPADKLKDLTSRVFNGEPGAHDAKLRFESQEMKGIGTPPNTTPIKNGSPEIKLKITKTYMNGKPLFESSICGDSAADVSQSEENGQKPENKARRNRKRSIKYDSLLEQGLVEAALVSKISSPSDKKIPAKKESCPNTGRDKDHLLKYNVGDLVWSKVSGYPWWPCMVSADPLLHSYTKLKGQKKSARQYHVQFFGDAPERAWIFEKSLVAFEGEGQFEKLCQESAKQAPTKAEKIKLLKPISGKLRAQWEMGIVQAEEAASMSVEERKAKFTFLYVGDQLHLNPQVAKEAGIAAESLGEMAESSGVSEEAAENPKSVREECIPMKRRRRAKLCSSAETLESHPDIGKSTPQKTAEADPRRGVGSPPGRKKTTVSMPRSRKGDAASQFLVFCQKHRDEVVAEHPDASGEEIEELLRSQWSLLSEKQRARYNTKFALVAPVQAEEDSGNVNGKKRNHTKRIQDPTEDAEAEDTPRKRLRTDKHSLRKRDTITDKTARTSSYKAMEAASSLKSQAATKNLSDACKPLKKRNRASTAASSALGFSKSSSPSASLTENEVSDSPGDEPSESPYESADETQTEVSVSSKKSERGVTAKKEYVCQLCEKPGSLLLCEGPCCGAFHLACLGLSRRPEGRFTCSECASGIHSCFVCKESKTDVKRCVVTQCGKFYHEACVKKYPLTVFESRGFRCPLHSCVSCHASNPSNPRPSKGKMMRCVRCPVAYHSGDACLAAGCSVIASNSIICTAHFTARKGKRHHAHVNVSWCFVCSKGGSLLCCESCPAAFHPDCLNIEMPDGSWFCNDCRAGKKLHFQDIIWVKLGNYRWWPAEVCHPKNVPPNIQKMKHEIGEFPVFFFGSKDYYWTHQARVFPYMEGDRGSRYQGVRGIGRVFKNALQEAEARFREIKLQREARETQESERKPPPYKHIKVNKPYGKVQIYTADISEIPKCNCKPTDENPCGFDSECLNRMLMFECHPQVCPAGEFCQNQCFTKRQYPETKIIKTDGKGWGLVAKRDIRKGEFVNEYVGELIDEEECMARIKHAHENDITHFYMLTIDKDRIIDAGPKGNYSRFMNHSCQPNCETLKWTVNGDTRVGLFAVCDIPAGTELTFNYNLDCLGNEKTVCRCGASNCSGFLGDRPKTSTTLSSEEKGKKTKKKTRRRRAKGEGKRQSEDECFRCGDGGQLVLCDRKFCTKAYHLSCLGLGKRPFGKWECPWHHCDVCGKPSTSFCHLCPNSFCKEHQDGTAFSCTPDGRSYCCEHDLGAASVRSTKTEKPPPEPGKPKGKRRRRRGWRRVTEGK

[9] = Concentration-dependent survival of SW480 colon cancer line, luminescence detection with CellTiter-Glo, half-maximal inhibitory concentration (AID 1117338); type: functional
[10] = RKO cell viability reduction, dose response, CellTiter-Glo luminescence (AID 1117322); type: functional
[11] = cytotoxicity toward HCT116 cells – cell-based, CellTiter-Glo luminescence, IC50, dose response (AID 1117332); type: functional; settings: HCT-116
[12] = SNU-C1 cell viability reduction, dose response, CellTiter-Glo luminescence (AID 1117323); type: functional, cell-based
[13] = cytotoxicity toward Colo320 cells – cell-based, CellTiter-Glo luminescence, IC50, dose response (AID 1117334); type: functional; settings: COLO 320
[14] = cytotoxicity toward HT-29 cells – cell-based, CellTiter-Glo luminescence, IC50, dose response (AID 1117330); type: functional
[15] = CellTiter-Glo luminescent dose response of DLD-1 viability loss (AID 1117352); type: functional
[16] = HCT116 cell viability decrease, GSK3B pretreatment – CellTiter-Glo, IC50, dose response (AID 1117339); type: functional; settings: HCT-116
[17] = target: Metabotropic glutamate receptor 7 (Homo sapiens, UniProt Q14831); test: mGlu7 positive allosteric modulators, dose response, cell-based, calcium mobilization, Galpha15 (AID 743384); type: functional
[18] = target: RNA-editing ligase 1, mitochondrial (Trypanosoma brucei brucei, UniProt P86926); test: TbREL1 ligase inhibitors, dose response, biochemical, fluorescence, Trypanosoma brucei (AID 1117295); type: functional
[19] = inhibitors of non-replicating M. tuberculosis, dose response, luciferase, dry powder (AID 651619); type: functional; settings: Mycobacterium tuberculosis
[20] = inhibitors of non-replicating M. tuberculosis, dose response, luciferase, dry powder (AID 651620); type: functional; settings: Mycobacterium tuberculosis

T2 sequence (P63165 whole entry): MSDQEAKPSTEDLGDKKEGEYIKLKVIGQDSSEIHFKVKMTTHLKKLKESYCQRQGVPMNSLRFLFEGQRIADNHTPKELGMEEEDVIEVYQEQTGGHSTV
Sequence of Metabotropic glutamate receptor 7 (Q14831 whole entry): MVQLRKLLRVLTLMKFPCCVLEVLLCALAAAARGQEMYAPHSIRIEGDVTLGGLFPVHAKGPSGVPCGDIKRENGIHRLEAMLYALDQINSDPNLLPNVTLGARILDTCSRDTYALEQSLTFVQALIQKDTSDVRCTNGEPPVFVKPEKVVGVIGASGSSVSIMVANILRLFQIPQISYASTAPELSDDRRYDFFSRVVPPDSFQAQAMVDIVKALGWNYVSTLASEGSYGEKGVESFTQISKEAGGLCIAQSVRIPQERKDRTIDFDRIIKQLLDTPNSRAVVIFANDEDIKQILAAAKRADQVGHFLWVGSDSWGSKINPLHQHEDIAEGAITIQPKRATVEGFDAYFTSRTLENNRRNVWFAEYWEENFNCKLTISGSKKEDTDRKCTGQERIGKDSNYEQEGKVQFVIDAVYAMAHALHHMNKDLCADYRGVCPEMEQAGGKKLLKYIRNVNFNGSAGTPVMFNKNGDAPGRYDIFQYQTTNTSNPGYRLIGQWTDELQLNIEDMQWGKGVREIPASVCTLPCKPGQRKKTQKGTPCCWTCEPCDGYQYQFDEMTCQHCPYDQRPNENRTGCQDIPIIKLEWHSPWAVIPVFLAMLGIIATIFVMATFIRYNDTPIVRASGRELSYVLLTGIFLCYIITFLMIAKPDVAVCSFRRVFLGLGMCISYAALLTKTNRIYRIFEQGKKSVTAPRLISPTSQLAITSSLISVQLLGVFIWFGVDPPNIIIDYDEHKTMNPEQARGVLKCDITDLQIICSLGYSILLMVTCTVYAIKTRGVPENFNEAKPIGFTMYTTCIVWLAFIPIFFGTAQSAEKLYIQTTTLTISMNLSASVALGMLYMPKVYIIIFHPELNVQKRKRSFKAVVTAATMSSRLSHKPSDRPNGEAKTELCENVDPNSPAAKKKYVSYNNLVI
Sequence of E3 ubiquitin-protein ligase UHRF1 (Q96T88 whole entry, the tested form may be a part): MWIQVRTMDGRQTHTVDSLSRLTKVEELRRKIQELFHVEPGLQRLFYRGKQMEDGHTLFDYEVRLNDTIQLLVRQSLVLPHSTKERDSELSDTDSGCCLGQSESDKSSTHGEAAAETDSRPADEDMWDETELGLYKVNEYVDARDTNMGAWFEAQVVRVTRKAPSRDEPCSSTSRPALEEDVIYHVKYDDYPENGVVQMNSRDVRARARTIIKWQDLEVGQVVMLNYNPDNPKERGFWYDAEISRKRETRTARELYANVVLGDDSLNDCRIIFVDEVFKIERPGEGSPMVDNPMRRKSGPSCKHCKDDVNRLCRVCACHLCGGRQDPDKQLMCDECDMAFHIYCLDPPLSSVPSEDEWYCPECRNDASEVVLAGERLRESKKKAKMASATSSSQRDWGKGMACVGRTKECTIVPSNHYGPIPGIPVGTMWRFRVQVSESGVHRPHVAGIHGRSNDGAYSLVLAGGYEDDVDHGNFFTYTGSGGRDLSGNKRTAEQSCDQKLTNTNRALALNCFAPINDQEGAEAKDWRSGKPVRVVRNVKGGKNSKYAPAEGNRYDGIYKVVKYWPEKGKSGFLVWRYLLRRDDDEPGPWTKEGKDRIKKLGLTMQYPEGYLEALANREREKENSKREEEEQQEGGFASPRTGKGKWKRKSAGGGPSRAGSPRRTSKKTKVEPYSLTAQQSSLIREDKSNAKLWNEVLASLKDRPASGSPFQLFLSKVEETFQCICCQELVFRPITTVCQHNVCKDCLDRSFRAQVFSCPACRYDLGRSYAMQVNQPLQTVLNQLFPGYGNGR
Sequence of Caspase-6 (P55212 24-179 limits assumed): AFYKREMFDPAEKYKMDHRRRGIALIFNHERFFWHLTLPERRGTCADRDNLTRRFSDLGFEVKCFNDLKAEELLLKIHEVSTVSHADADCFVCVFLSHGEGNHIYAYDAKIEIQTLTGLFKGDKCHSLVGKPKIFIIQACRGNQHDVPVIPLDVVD
Sequence of Caspase-6 (P55212 194-293 limits assumed): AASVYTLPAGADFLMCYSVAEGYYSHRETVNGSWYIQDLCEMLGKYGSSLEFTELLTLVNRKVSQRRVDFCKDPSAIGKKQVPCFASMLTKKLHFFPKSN
Sequence of RNA-editing ligase 1, mitochondrial (P86926 whole entry): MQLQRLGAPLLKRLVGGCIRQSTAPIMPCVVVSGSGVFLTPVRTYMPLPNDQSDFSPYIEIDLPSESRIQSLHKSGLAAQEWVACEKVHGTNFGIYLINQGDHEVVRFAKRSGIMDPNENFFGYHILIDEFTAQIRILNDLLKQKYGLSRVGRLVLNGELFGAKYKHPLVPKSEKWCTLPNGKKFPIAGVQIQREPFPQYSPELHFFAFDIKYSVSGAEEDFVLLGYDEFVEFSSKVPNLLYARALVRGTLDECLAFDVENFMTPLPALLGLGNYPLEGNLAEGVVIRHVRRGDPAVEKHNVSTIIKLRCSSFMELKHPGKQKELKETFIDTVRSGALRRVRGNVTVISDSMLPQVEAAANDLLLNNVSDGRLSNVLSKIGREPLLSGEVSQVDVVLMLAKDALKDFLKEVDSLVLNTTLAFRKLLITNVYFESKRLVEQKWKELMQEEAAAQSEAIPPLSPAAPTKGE

Q: With O=C(Nc1nccs1)c1cn(-c2ccccc2)nc1-c1ccncc1 as the compound, how does the IC50 [1] read?
A: > 37.2 µM (inactive)

Q: What about the IC50 [2] of the same compound?
A: 9.12 µM (active)

Q: What about the IC50 [3] of the same compound?
A: > 83.3 µM (inactive)

Q: For CCCCn1c(NC(=O)c2ccccc2)c(C#N)c2nc3ccccc3nc21, which IC50 [4] is on record?
A: > 100 µM (not active)

Q: What about the IC50 [5] of the same compound?
A: > 66.6 µM (inactive)

Q: What about the IC50 [6] of the same compound?
A: 17.4 µM (active)

Q: What about the AC50 (Caspase-6) of the same compound?
A: 47.4 µM (active)

Q: And the IC50 [7]?
A: > 43.8 µM (inactive)

Q: And the AC50 [8]?
A: 2.61 µM (active)

Q: With O=C(Nc1ccc(Cl)cc1)Nc1ccc(Cl)c(C(F)(F)F)c1 [CLOFLUCARBAN] as the compound, how does the IC50 [9] read?
A: 0.009 µM (active)

Q: What about the IC50 [10] of the same compound?
A: 0.003 µM (active)

Q: What about the IC50 [11] of the same compound?
A: 0.003 µM (active)

Q: And the IC50 [12]?
A: 0.009 µM (active)

Q: And the IC50 [13]?
A: 0.003 µM (active)

Q: And the IC50 [14]?
A: 0.001 µM (active)

Q: And the IC50 [15]?
A: 0.027 µM (active)

Q: And the IC50 [16]?
A: 0.003 µM (active)

Q: Which EC50 [17] does the source give for COC(=O)c1ccc(-n2c(C)cc(C(=O)COc3ccc(OC(C)=O)cc3)c2C)cc1 here?
A: 10 µM (active)

Q: For COC(=O)C1=C(C)N(Cc2ccccc2C(F)(F)F)C(NCc2ccc3c(c2)OCO3)=NC1c1cccc(F)c1 (stereo unspecified), which IC50 [18] is on record?
A: > 96.6 µM (inactive)

Q: For [O-][n+]1ccccc1CSc1nnc(-c2ccccc2)o1, which IC90 [19] is on record?
A: 31 µM (active)

Q: And the IC90 [20]?
A: 31 µM (active)

— ChEMBL document CHEMBL1201862, “PubChem BioAssay data set” (2004)
